Measurements as given in patent publication US20090036461A1, “Use of Azabicyclo Hexane Derivatives” (priority 2005, published 2009).
“Also recorded” adds a separate entry of the source.

Tests used:
D3 = D3 (Homo sapiens, UniProt P35462); assay: functional pKi (fpKi) at D3, comparison of separated enantiomers; type: biochemical; settings: difference in fpKi between the two separated enantiomers of the same example
[1] = system: Female Sprague Dawley rats; assay: stress-induced food intake, animal model for binge eating (diet restriction cycles + foot shock); type: in vivo
From the text: Dieting is the strongest predictor of overeating in response of stress. In this specific case, binge eating or binge/purge behaviours are recognized as key features of the human diseases (bulimia nervosa or anorexia, respectively). Two critical factors seem to modulate the production of binge eating: a history of food restriction and access of high palatable (HP) food (dense in fat and sugar) and the interaction with environmental stress. Based on these premises, preclinical models can be developed to explore the potential therapeutic effect of test compounds on binge eating. One model which may be used is described by Hagan et al (Hagan, M. M. et al., Physiol and Beh 77 (2002): 45-54).
Slight modifications such as those below may be applied to their model, for example: • Instrument to deliver FS: Passive Avoidance (Gemini Avoidance System, Coubourn Instrument, San Diego) may be used instead of the 4 closed runways with metal bar floors (Coulbourn Instruments Habitest System, Allentown, Pa.). • Refeeding: 4 days instead of 6 days • HP food: Baiocchi® (Barilla) instead of Oreo® biscuits • For the submission of the animals to the pharmacological treatment, see: Placidi et al., Int J Eat Disord 2004 36 (3) 328-41
Based on the model by Hagan et al, and incorporating the above changes, a model for binge eating may be set up as follows. Female Sprague Dawley rats (7 weeks old) can be single housed at 21±1 C and under a 12 h/12 h light/dark cycle (dark phase: 18:00-06:00) for all the period of the experiment. Before beginning, rats can be habituated to these conditions for 7 days. The rats can then be divided into 2 groups (16 animals/group). One group may take food ad lib (non restricted group: NR) for the 24 days of the experiment, while the other (Restricted Group: R) may receive a restricted diet (66% of the quantity food intake that the other control group was eating) during 4 days, and eat ad lib for the following 4 days. This cycle can be repeated 3 times. Following the last day of refeeding, each group can be subdivided in two. Eight animals of group NR and 8 animals of group R can receive a stress stimulus (4 Foot Shocks (FS) of 0.6 mA separated by 15 sec intervals) while the other 2 subgroups can remain in the same cage where FS is delivered for the same period of time, but without receiving the FS (no shocked: NS). The 4 groups are S/NR, NS/NR, S/R and NS/R. Immediately following time in the shock apparatus, rats can be submitted to a pharmacological treatment (administration of the test compound or of the vehicle) and then be returned to the animal colony. A pre-measured amount of pellets or HP food (Baiocchie) can be put in each cage, and food intake measured after 4 h. Food intake can be expressed in kcal.
Rationale—The effects of the title compound, prepared in an analogous way with Example 123, were tested in the animal model discussed above. The aim of the present study was to assess the effect of this compound in animals that received 3 cycles of diet (restricted:R) and stress (shocked) conditions similar to binge eating in humans.
Methods—Female Sprague Dawley rats (7-week old) were single housed at 21±1° C. and under a 12 h/12 h light/dark cycle (dark phase: 18:00-06:00) for all the entire experimental period. Rats received a restricted diet (66% of the food intake vs. control group) during 4 days, and ate ad libitum for the following 4 days. This cycle was repeated 3 times. Additionally, two other groups were eating ad libitum (not restricted: NR) and received the shock (NR/S). Following the last day of refeeding, the animals received a stress stimulus (4 Foot Shocks (FS) of 0.6 mA separated by 15 sec intervals) and received vehicle or the title compound (0.03, 0.3 or 3 mg/kg i.p.) immediately after the shock. These were the S/R (shocked/Restricted) rats. The S/NR rats received the shock and vehicle or the title compound (prepared in an analogous way with Example 123; 3 mg/kg i.p.) in the same way as the S/R groups. […]

[2] = S/NR (shocked/not restricted) rats, 3 mg/kg i.p. after foot shock
[3] = S/R (shocked/restricted) rats, 0.03 mg/kg i.p. after foot shock
[4] = S/R (shocked/restricted) rats, 0.3 mg/kg i.p. after foot shock
[5] = S/R (shocked/restricted) rats, 3 mg/kg i.p. after foot shock

Sequence of D3 (P35462 whole entry): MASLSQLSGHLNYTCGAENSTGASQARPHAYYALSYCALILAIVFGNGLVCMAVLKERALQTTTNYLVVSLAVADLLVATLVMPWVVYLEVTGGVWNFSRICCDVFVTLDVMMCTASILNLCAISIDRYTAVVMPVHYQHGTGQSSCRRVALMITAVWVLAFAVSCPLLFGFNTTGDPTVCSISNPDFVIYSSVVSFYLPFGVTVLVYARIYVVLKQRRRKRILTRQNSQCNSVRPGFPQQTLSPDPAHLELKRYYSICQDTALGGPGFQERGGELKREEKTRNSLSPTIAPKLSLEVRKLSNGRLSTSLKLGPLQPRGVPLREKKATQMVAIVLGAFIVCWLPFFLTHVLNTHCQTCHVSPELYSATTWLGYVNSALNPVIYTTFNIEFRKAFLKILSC

Row | Compound | fpKi (D3) higher than the other enantiomer (D3) | further results
1 | Cc1ncoc1-c1nnc(SCCCN2C[C@@H]3C[C@]3(c3cccc(F)c3)C2)n1C (single isomer, unassigned) [Example 23 Enantiomer 1] | > 1 log-unit | 
2 | Cn1c(SCCCN2C[C@@H]3C[C@]3(c3ccc(OC(F)(F)F)cc3)C2)nnc1C1CCOCC1 (single isomer, unassigned) [Example 33 Enantiomer 1] | > 1 log-unit | 
3 | Cc1ncoc1-c1nnc(SCCCN2C[C@@H]3C[C@]3(c3cc(F)cc(C(F)(F)F)c3)C2)n1C (single isomer, unassigned; enantiomer 1) [Example 110 Enantiomer 1] | > 1 log-unit | 
4 | Cc1ncoc1-c1nnc(SCCCN2C[C@@H]3C[C@]3(c3ccc(Cl)cc3)C2)n1C (single isomer, unassigned) [Example 20 Enantiomer 1] | > 1 log-unit | 
5 | Cc1ncoc1-c1nnc(SCCCN2C[C@]3(C)C[C@@]3(c3ccc(C(F)(F)F)c(F)c3)C2)n1C (single isomer, unassigned) [Example 61 Enantiomer 1] | > 2 log-unit | 
6 | Cc1ncoc1-c1nnc(SCCCN2C[C@@H]3C[C@]3(c3ccc(C(F)(F)F)cn3)C2)n1C (single isomer, unassigned) [Example 96 Enantiomer 2] | > 1 log-unit | 
7 | Cc1ccc2c(-c3nnc(SCCCN4C[C@@H]5C[C@]5(c5ccc(Br)cc5)C4)n3C)cccc2n1 (single isomer, unassigned) [Example 2 Enantiomer 2] | > 1 log-unit | 
8 | Cc1ncoc1-c1nnc(SCCCN2C[C@@H]3C[C@]3(c3ccc(C(F)(F)F)cc3F)C2)n1C.O=C(O)[C@H](O)[C@@H](O)C(=O)O [Example 123, (1S,5R)-1-[2-Fluoro-4-(trifluoromethyl)phenyl]-3-(3-{[4-methyl-5-(4-methyl-1,3-oxazol-5-yl)-4H-1,2,4-triazol-3-yl]thio}propyl)-3-azabicyclo[3.1.0]hexane tartrate] |  | inhibitory effect in non-stressed animals, in respect to controls ([1]; 3 mg/kg i.p., result in words, tartrate): did not show any inhibitory effect; also recorded: No significant effects; Chow Intake after 4 h [1, 2]: 1.92 ± 0.66 kcal; HP Intake after 4 h [1, 2]: 8.73 ± 2.75 kcal; Total Food Intake after 4 h [1, 2]: 10.65 ± 2.75 kcal; Chow Intake after 4 h [1, 3]: 1.95 ± 0.58 kcal; HP Intake after 4 h [1, 3]: 17.11 ± 2.49 kcal; Total Food Intake after 4 h [1, 3]: 19.06 ± 2.44 kcal; Chow Intake after 4 h [1, 4]: 2.09 ± 0.74 kcal; HP Intake after 4 h [1, 4]: 14.44 ± 2.15 kcal; Total Food Intake after 4 h [1, 4]: 16.54 ± 1.94 kcal; Chow Intake after 4 h [1, 5]: 2.62 ± 0.79 kcal; HP Intake after 4 h [1, 5]: 8.89 ± 1.90 kcal; Total Food Intake after 4 h [1, 5]: 11.51 ± 1.99 kcal; effect on total Food Intake ([1]; S/R rats, highest dose of 3 mg/kg, 1-way ANOVA, result in words): significantly decreased total food intake; effect on HP intake ([1]; S/R rats, highest dose of 3 mg/kg, Dunnett's p<0.01, result in words): significantly decreased HP intake; effect on Chow intake ([1]; S/R rats, highest dose of 3 mg/kg, Dunnett's p<0.05, result in words): significantly decreased chow Intake; effect on stress-induced overeating ([1]; result in words): significant inhibitory effect on stress-induced overeating
9 | Cc1ncoc1-c1nnc(SCCCN2C[C@@H]3C[C@]3(c3cc(C(F)(F)F)ccc3F)C2)n1C (single isomer, unassigned) [Example 36 Enantiomer 2] | > 1 log-unit | 
10 | Cc1ccc2c(-c3nnc(SCCCN4C[C@@H]5C[C@]5(c5ccccc5)C4)n3C)cccc2n1 (single isomer, unassigned) [Example 3 Enantiomer 2] | > 1 log-unit | 
11 | Cc1ncoc1-c1nnc(SCCCN2C[C@@H]3C[C@]3(c3ccc(OC(F)(F)F)cc3)C2)n1C (single isomer, unassigned; enantiomer 1) [Example 30 Enantiomer 1] | > 1 log-unit | 
12 | CCC(=O)c1cc([C@]23C[C@H]2CN(CCCSc2nnc(-c4ocnc4C)n2C)C3)ccc1OC (single isomer, unassigned) [Example 71 Enantiomer 1] | > 1 log-unit | 
13 | Cc1ncoc1-c1nnc(SCCCN2C[C@]3(C)C[C@@]3(c3cccc(Cl)c3)C2)n1C (single isomer, unassigned) [Example 22 Enantiomer 1] | > 1 log-unit | 
14 | COc1cccc([C@]23C[C@H]2CN(CCCSc2nnc(-c4ocnc4C)n2C)C3)c1 (single isomer, unassigned) [Example 24 Enantiomer 1] | > 1 log-unit | 
15 | COc1ccc([C@]23C[C@H]2CN(CCCSc2nnc(-c4cccc5nc(C)ccc45)n2C)C3)cc1 (single isomer, unassigned) [Example 1 Enantiomer 1] | > 1 log-unit | 
16 | Cc1nc2cc([C@]34C[C@H]3CN(CCCSc3nnc(-c5ocnc5C)n3C)C4)ccc2s1 (single isomer, unassigned) [Example 72 Enantiomer 1] | > 1 log-unit | 
17 | Cc1ncoc1-c1nnc(SCCCN2C[C@@H]3C[C@]3(c3ccc(Br)cc3)C2)n1C (single isomer, unassigned) [Example 9 Enantiomer 1] | > 1 log-unit | 
18 | Cc1ncoc1-c1nnc(SCCCN2C[C@@H]3C[C@]3(c3ccc(F)cc3)C2)n1C (single isomer, unassigned) [Example 21 Enantiomer 1] | > 1 log-unit | 
19 | Cc1ncoc1-c1nnc(SCCCN2C[C@@H]3C[C@]3(c3cccc(C(F)(F)F)c3F)C2)n1C (single isomer, unassigned; enantiomer 2) [Example 111 Enantiomer 2] | > 1 log-unit | 
20 | Cc1ccc2c(-c3nnc(SCCCN4C[C@@H]5C[C@]5(c5ccc(Cl)c(Cl)c5)C4)n3C)cccc2n1 (single isomer, unassigned) [Example 4 Enantiomer 1] | > 0.6 log-unit | 
21 | Cc1ccc2c(-c3nnc(SCCCN4C[C@@H]5C[C@]5(c5ccc(C(C)(C)C)cc5)C4)n3C)cccc2n1 (single isomer, unassigned) [Example 5 Enantiomer 2] | > 0.9 log-unit | 
22 | Cc1ncoc1-c1nnc(SCCCN2C[C@@H]3C[C@]3(c3ccc4c(cnn4C)c3)C2)n1C (single isomer, unassigned) [Example 74 Enantiomer 1] | > 1 log-unit | 
23 | COc1ccc([C@]23C[C@H]2CN(CCCSc2nnc(-c4ocnc4C)n2C)C3)cc1C(C)=O (single isomer, unassigned) [Example 19 Enantiomer 1] | > 1 log-unit | 
